Source: paper PMC5335602, “Protein-ligand binding affinity determination by the waterLOGSY method: An optimised approach considering ligand rebinding” (Scientific Reports, 2017)

Experiments:
Type in all cases: binding
α-chymotrypsin = molecular target: T1, α-chymotrypsin (Bos taurus, UniProt P00766); test: […] NMR chemical shift titration; waterLOGSY titration
T1 construct: from bovine pancreas, Type II

[1] = molecular target: T2, human serum albumin (HSA) (Homo sapiens, UniProt P02768); test: waterLOGSY NMR titration ([…] HSA, […] s mixing time); details: read-out: KD^obs/μM / 25 μM HSA
T2 construct: gene ALB

[2] = molecular target: T3, bovine serum albumin (BSA) (Bos taurus, UniProt P02769); test: waterLOGSY NMR titration ([…] BSA)
T3 construct: gene ALB
T3 sequence (P02769 25-607): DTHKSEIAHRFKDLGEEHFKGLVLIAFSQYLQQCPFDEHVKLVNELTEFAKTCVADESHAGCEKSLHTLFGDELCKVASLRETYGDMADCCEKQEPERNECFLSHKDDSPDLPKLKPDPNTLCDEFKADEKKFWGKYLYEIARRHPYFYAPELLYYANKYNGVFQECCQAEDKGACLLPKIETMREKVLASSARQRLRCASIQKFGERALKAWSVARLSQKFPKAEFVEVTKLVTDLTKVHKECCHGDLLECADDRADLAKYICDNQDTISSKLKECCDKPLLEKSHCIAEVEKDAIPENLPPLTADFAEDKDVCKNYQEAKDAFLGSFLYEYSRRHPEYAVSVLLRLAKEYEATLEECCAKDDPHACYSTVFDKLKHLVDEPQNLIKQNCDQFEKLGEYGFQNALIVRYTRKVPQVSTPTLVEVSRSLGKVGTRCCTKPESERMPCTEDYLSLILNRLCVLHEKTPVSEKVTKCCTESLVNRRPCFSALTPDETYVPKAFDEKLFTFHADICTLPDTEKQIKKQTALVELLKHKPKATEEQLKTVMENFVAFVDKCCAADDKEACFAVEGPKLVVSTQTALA

T2 sequence (P02768 25-609): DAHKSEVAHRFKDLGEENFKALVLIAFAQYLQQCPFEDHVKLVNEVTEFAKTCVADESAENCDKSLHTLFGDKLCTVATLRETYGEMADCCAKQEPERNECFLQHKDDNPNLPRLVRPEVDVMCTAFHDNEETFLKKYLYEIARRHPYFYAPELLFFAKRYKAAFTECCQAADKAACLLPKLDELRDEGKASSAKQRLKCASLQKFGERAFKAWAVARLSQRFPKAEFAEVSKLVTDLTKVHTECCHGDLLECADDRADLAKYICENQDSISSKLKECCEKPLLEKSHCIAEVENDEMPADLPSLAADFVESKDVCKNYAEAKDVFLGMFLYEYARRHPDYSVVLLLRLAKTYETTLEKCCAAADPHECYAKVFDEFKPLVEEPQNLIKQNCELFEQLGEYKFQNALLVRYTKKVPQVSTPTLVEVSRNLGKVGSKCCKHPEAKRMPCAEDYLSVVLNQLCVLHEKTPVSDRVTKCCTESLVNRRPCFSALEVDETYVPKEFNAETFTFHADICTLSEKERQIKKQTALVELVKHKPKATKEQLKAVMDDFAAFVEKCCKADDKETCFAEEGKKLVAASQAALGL

Row | Structure (SMILES) | Kd (α-chymotrypsin) [µM] | Kd [1] [µM] | Kd [2] [µM]
1 | OB(O)c1cccc(F)c1 [3-Fluorophenylboronic acid] | 630 |  | 
2 | N[C@@H](Cc1c[nH]c2ccccc12)C(=O)O [L-tryptophan] |  | 185 ± 50 | ~120
